The results in this text go back to publication PMC4224962 (Nature, 2014).

Assay type in all cases: cell-based, Mus musculus
One experiment relates to primary white adipocytes. The experiment is described as follows: Thermogenic gene expression. Conditions: for Ucp1 expression: primary adipocytes treated with the indicated proteins 1 μg/ml for 24 hr, n = 3 (Fig. 2e).
The subject of the next experiment is UCP1 protein. Briefly: UCP1 protein levels by western blotting in primary white and brown adipocytes. As to conditions: NE 100 nM, PTHrP or PTH 100 ng/ml each, 24 hr. (A western blot detects proteins with antibodies after separation by electrophoresis.)
The subject of a further experiment is primary adipocytes. The experiment is described as follows: Cellular oxygen consumption rate. As to conditions: primary white adipocytes, NE 100 nM, PTHrP or PTH 100 ng/ml, 24 hr, n = 4.
The next experiment relates to primary brown adipocytes. The experiment is described as follows: Thermogenic gene expression. Conditions: peptides 100 ng/ml for 2 hr, RT-qPCR, n = 3 (Extended Data Fig. 3d). (In general: In qPCR the cycle at which signal appears reflects the starting amount.)

With `C=CC(=O)Nc1ccc2ncnc(Nc3ccc(OCc4cccc(F)c4)c(Cl)c3)c2c1` [AST-1306], the “browning activity present in LLC cell-conditioned medium” value with primary white adipocytes (AST-1306 1 μM and LLC cell-conditioned medium for 24 hr, primary adipocytes, n = 3 (Fig. 3a)) is “largely unaffected”. Also, the “Ucp1 mRNA induction by BTC, EREG or HBEGF” value in the experiment with primary white adipocytes (AST-1306 1 μM with BTC, EREG or HBEGF 100 ng/ml for 24 hr, primary adipocytes, n = 3 (Extended Data Fig. 3c)) is “completely blocked Ucp1 mRNA induction”.

Take epiregulin [EREG]: the Ucp1 expression result in the experiment on primary white adipocytes (RT-qPCR) is “induced Ucp1 expression”.

`NC[C@H](O)c1ccc(O)c(O)c1` [NE, norepinephrine]: the UCP1 protein levels entry in the experiment on UCP1 protein is given as “increased UCP1 protein comparably”. Further, the “O2 consumption, including basal, uncoupled and maximal respiration” value in the experiment with primary adipocytes was “significantly raised O2 consumption”.

For the molecule “PTH: Synthetic parathyroid hormone 1-34 peptide, purchased from Bachem (SVSEIQLMHNLGKHLNSMERVEWLRKKLQDVHNF; Parathyroid hormone; UniProt P01270 32-65, looked up, fragment)”, the thermogenic gene expression result in the experiment on primary white adipocytes (primary white adipocytes, peptides 100 ng/ml for 2 hr, RT-qPCR, n = 3 (Fig. 3b)) was “stimulated thermogenic gene expression”; in the experiment with primary brown adipocytes, “stimulated thermogenic gene expression”. For the same molecule, the UCP1 protein levels result in the experiment with UCP1 protein is “increased UCP1 protein comparably”. Besides, the “O2 consumption, including basal, uncoupled and maximal respiration” value in the experiment on primary adipocytes was “significantly raised O2 consumption”.

B1: betacellulin (protein, UniProt P35070 32-111, looked up)
Betacellulin: DGNSTRSPETNGLLCGDPEENCAATTTQSKRKGHFSRCPKQYKHYCIKGRCRFVVAEQTPSCVCDEGYIGARCERVDLFY
Take B1: the Ucp1 expression result in the experiment with primary white adipocytes (RT-qPCR) was “induced Ucp1 expression”.

B2: heparin binding-EGF (protein, UniProt Q99075 63-148, looked up)
Heparin-binding EGF-like …: DLQEADLDLLRVTLSSKPQALATPNKEEHGKRKKKGKGLGKKRDPCLRKYKDFCIHGECKYVKELRAPSCICHPGYHGERCHGLSL
As to B2, the Ucp1 expression result in the experiment on primary white adipocytes (RT-qPCR) is “induced Ucp1 expression”.
